The results in this text go back to patent US11752125B2, “Anti-neuroinflammatory and protective compounds in Achillea fragrantissima” (THE STATE OF ISRAEL MINISTRY OF AGRICULTURE & RURAL …, priority 2013, dated 2023).

For one data set, the system named is ERK1/2. The data set can be described thus: SNP-induced ERK1/2 phosphorylation in N2a cells (ELISA). The data set is classed as cell-based. To be noted: concomitant treatment 40 min, total protein not affected. The protocol: N2a cells were treated concomitantly with SNP and TTF for 40 min. Cells were extracted and the levels of phosphorylated or total ERK1/2 were determined by specific ELISA kits. The results are shown in FIG. 19 and are the mean±SEM of one experiment (n=2).

In another data set the test system is MMP-9. As to the kind of experiment: MMP-9 transcripts in LPS-activated microglial cells (real-time PCR). The conditions noted are these: LPS 4.5 ng/mL; quantitative real-time PCR. The data set is classed as cell-based, rat. As to the method: (§1) RNA was extracted by the RNeasy Plus Mini Kit (Qiagen, Hilden, Germany) according to the manufacturer's instructions. Genomic DNA was removed from the RNA samples by using 50 units of RNase-free DNaseI at 37° C. for 1 h. RNA ([…]) was converted to cDNA using the Thermo Scientific Verso cDNA kit (Thermo Fisher Scientific Inc) following the manufacturer's protocol. The cDNA was used for quantitative real-time PCR amplification with TaqMan chemistry (Applied Biosystems) using Rat MMP9, TNFα, IL1β, iNOS, COX2 pre-designed TaqMan Gene Expression Assay from Applied Biosystems (Rn00579162_m1, Rn00562055_m1, Rn00580432_m1, Rn00561646_m1, Rn01483828_m1, respectively). […] All results from three technical replicates were normalized relative to α-Tubulin (Rn01532518.g1) and GAPDH (Rn01775763.g1), respectively, and expressed as relative expression ratios calculated (relative quantity, RQ) using the comparative method and based on the data that were created by the ABI PRISM 7700 Sequence Detection System (using version 1.6 software).
(§2) Procedure 23. Measurement of IL-1Beta, TNFalpha, iNOS, COX-2 and MMP-9 Transcripts in LPS-Activated Microglial Cells by Quantitative Real-Time PCR Analysis. • 1. […]
Microglial cells were treated with the indicated concentrations of achillolide A, followed by stimulation with LPS (4.5 ng/mL). […] The levels of MMP-9 transcripts were measured by quantitative real-time PCR. […]

Another data set concerns COX-2. The data set can be described thus: COX-2 transcripts in LPS-stimulated microglial cells (real-time PCR). In kind it is cell-based, rat. To be noted: 20 μg/mL; LPS 4.5 ng/mL, 5 h. The protocol:
as §1, §2
(§3) Microglial cells were treated with 20 μg/mL of achillolide A, followed by stimulation with LPS (4.5 ng/mL). […] The results are expressed as percentages relative to LPS-stimulated cells. […]

In the next data set the test system is IL-1β. The data set can be described thus: IL-1β transcripts in LPS-stimulated microglial cells (real-time PCR). In kind it is cell-based, rat. The conditions noted are these: 20 μg/mL; LPS 4.5 ng/mL, 5 h. As to the method:
as §1, §2, §3

For the next data set, the system named is iNOS. As to the kind of experiment: iNOS transcripts in LPS-stimulated microglial cells (real-time PCR). To be noted: 20 μg/mL; LPS 4.5 ng/mL, 5 h. In kind it is cell-based, rat. The protocol: as §1, §2, §3
Another data set deals with microglial cells. The data set can be described thus: Cytotoxicity in LPS-activated microglial cells (LDH). The data set is classed as cell-based, rat. To be noted: LPS 4.5 ng/mL, 20 h. As to the method:
Cell viability was determined using a commercial colorimetric assay (Roche Applied Science, Germany) which measures Lactate Dehydrogenase (LDH) activity released from the cytosol of damaged cells into the incubation medium. The absorbance was measured at 492 nm in a plate reader. The percentage of cytotoxicity was calculated according to the following equation, where the LDH activity released from the untreated cells is the spontaneous LDH release, and the maximum releasable LDH in the cells is the:
In FIG. 21 A, microglial cells were treated with different concentrations of achillolide A, dexamethasone or memantine (as reference drugs) and were concomitantly activated by LPS (4.5 ng/mL) for 20 h. Cell conditioned supernatants were collected, and the levels of NO were measured using Griess reaction. Cytotoxicity was measured using the LDH method (FIG. 21B). Values represent the mean±SEM (n=12 for each treatment). ** p<0.01; ***p<0.001 relative to cells that were treated to LPS only.

Each structure is given as a SMILES string.

As for `COc1cc(-c2oc3cc(OC)c(OC)c(O)c3c(=O)c2O)ccc1O` [TTF, 3,5,4′-trihydroxy-6,7,3′-trimethoxyflavone], the “effect on SNP-induced phosphorylation of ERK1/2” value in the data set with ERK1/2 was “significantly inhibited”.

As to `C=C1CCC2=C(CO)C(=O)O[C@H]2/C=C(\C)[C@H](OC(C)=O)CC1=O` [achillolide A], the “effect on MMP-9 transcripts” value with MMP-9 is “down-regulates”. Moreover, the “effect on LPS-induced COX-2 transcript levels” value in the data set with COX-2 is given as “significantly inhibited”. In the data set with IL-1β, the “effect on LPS-induced IL-1β transcript levels” value is on record as “significantly inhibited”. For the same compound, in the data set with iNOS, the “effect on LPS-induced iNOS transcript levels” value is “significantly inhibited”. Moreover, in the data set on microglial cells, the “cytotoxic effect in activated microglial cells” value was “without a significant cytotoxic effect”.
